# Test results: patent US7998940B2, “Aptamers to von Willebrand factor and their use as thrombotic disease therapeutics” (Archemix Corp., priority 2004, dated 2011)
# Changes are numbered by the printed parent chain. Read-outs that look alike come from different tables or passages of the source. Oligonucleotides are written 5' to 3', each unit as a sugar letter and its base; * is a phosphorothioate linkage, no mark a phosphodiester; rarer units and linkages stand in square brackets, end groups in braces. Plain capitals give the bases only. d = 2'-deoxy (DNA); r = 2'-OH (RNA); f = 2'-fluoro
# B1: AMX201.H3: rRfY aptamer clone (nucleic acid)
# chain: rGrGrArGfCrGfCrAfCfUfCrArGfCfCrAfCfUrArAfCrGrGfUfUrGrAfUfCfUfCrArGrGrAfCfUrArArAfUrArGfUfCrArAfCrArArGrGrAfUrGfCrGfUfUfUfCrGrAfCfCfUfCfUfCfUrGfCfUrArGfC
# B2: AMX237.G7: DNA SELEX 2 aptamer clone (nucleic acid)
# DNA: CTACCTACGATCTGACTAGCTTGGTAGCGACTTTGTGGAGCTGCGGTTTGGTCGACGTCAGCTTACTCTCATGTAGTTCC
# modifications: DNA, backbone not given here
# notes: DNA SELEX 2 aptamer clone
# B3: AMX236.A12: DNA SELEX 2 aptamer clone (nucleic acid)
# chain: B2 DNA with T33C
# modifications: DNA, backbone not given here
# notes: DNA SELEX 2 aptamer clone
# B4: AMX201.B1: rRfY aptamer clone (nucleic acid)
# chain: rGrGrArGfCrGfCrAfCfUfCrArGfCfCrAfCrArGrArGfCfCfCfUrGrArGfUrGfUrAfUrGrAfUfCrGfCfCfUrArGrAfUfCfUrAfUfCrGrAfUrGfCfUfUfUfUfUfCrGrAfCfCfUfCfUfCfUrGfCfUrArGfC
# What was measured:
# [1] = target: T1, human vWF A1 domain (SEQ ID NO 5) (Homo sapiens, UniProt P04275, T1381A); experiment: dot blot KD determination, human vWF A1 domain
# [2] = test system: rabbit vWF A1 domain (SEQ ID NO 6); experiment: dot blot KD determination, rabbit vWF A1 domain; type: binding; settings: for Kd: rRdY minimers, 8 point titration 0-300 nM
# Experimental: A 12 point protein titration was used in the dot blot assay (300 nM, 100 nM, 30 nM, 10 nM, 3 nM, 1 nM, 300 pM, 100 pM, 30 pM, 10 pM, 3 pM, 0 pM) in 1×DPBS plus 0.1 mg/mL BSA at room temperature for 30 minutes.
# [3] = test system: botrocetin induced platelet aggregation; experiment: Inhibition of botrocetin induced platelet aggregation (BIPA) in human PRP; type: cell-based; settings: botrocetin induced platelet aggregation, 6 minutes
# Experimental: In platelet rich plasma isolated from fresh human blood, botrocetin induces platelet aggregation via vWF. Platelet aggregate formation can be measured optically as an increase in % light transmittance on a Chronolog Model 490-4D Aggregometer because aggregation of platelets clarifies the plasma. Aptamers of the invention were analyzed for their ability to inhibit botrocetin induced platelet aggregation (“BIPA”) in human blood. An aptamer of the invention was considered to be active if it could prevent aggregate formation for six minutes post botrocetin addition.
# In order to determine the activity of aptamers on live human platelets, BIPA assays were done using freshly prepared platelet rich plasma. Blood was obtained from healthy human donors who had not taken NSAIDS for at least five days. […] Collected blood was pooled into 15 mL conical tubes and was spun at 200 g for 20 minutes. The turbid, yellow layer of platelet rich plasma (“PRP”) was withdrawn from the tubes, pooled, and set aside at room temperature. The remaining blood was spun at 2500 g for ten minutes. The clarified layer of plasma, known as platelet poor plasma (“PPP”), was withdrawn and set aside at room temperature. PRP was aliquoted into cuvettes containing stir bars at a volume of 470 uL. A sample of 500 uL of PPP was aliquoted into a cuvette and placed in the PPP reference cell of the platelet aggregometer. Samples of PRP were prewarmed at 37 degrees C. in the platelet aggregometer for 3-5 minutes before being used in BIPA assays. First, the concentration of botrocetin needed to induce platelet aggregation for each individual donor was determined by titration. This concentration of botrocetin was used for the remainder of the experiment. Next, aptamer was assayed by adding titrations of aptamer (zero, 1 nM to 1000 nM) to prewarmed PRP for one minute, followed by addition of botrocetin. With platelet aggregation, an increase in amplitude of light transmission is seen (FIG. 8). The concentration at which platelet aggregation is blocked at 90% or greater after 6 minutes is reported in the final column of Table 26.
# [4] = test system: full length human vWF binding to lyophilized platelets; experiment: Full length human von Willebrand Factor platelet binding assay (FACS); type: cell-based; settings: 5 nM full length human vWF, lyophilized platelets, botrocetin; for IC50: read-out: Inhibition of full length hVWF binding in FACS assay, Average IC50; for Inhibition of full length hVWF binding in FACS assay, IC50 range: both bounds in nM
# Method in brief: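 Aptamer titrations (0.1–1000 nM) pre-incubated with 5 nM full-length human vWF, then added to lyophilized platelets plus botrocetin for 15 min at 37 °C in PBS/0.5% BSA. Bound vWF detected by anti-vWF then FITC secondary antibody via flow cytometry MFI; % inhibition versus no-aptamer binding fitted for IC50.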
# [5] = test system: rabbit vWF domain A1 binding to lyophilized platelets; experiment: Rabbit von Willebrand Factor domain A1 platelet binding assay (FACS); type: cell-based; settings: 4 nM rabbit A1 vWF, lyophilized platelets, botrocetin
# Experimental: Botrocetin induces the binding of the A1 domain of vWF to platelets, as well as the full length protein. It was determined by the inventors that 6-Histidine-tagged rabbit A1 domain vWF purified protein could be induced to bind to human lyophilized platelets with botrocetin. Rabbit A1 binding to platelets is measured with an anti-poly-His antibody followed by incubation with a phycoerythrin conjugated secondary antibody. The degree of binding can be quantified by flow cytometric analysis. The ability of aptamers to block the binding of rabbit A1 to human fixed platelets was correlated with decreased fluorescence signal.
# The ability of aptamers of the invention to block rabbit vWF domain A1 binding to lyophilized platelets was also assessed by flow cytometric analysis. Titrations of aptamers (zero, 0.1 nM to 1000 nM) were preincubated briefly with 4 nM of rabbit A1 vWF in FACS buffer (PBS plus 0.5% bovine serum albumin) at room temperature in a volume of 50 uL. Another 50 uL containing 5 uL of lyophilized platelets plus 1 uL of 0.1 U/uL of botrocetin in FACS buffer was added to aptamer/vWF. This reaction was allowed to proceed for 15 minutes at 37 degrees C. after which 200 uL of FACS buffer was added. Platelets were collected by a 6 minute spin at 1470 RCF and the supernatant was discarded. The pellets were resuspended in 100 uL of FACS buffer containing a 1:200 dilution of anti-Penta-HIS-biotin conjugate antibody and were incubated at room temperature for 30 minutes. After the dilution with 200 uL of FACS buffer, the platelets were spun at 1470 RCF for 6 minutes, and the supernatant was discarded. The pellets were resuspended in a 1:100 solution of anti-IgG-PE antibody and were incubated in the dark for 30 minutes at room temperature. The entire 100 uL was diluted into 200 uL of FACS buffer and analyzed immediately by flow cytometric analysis in the FACSCAN. Contaminating debris was eliminated from the analysis by drawing a gate around the population of single and aggregated platelets and collecting data from 10000 events. Median fluorescent intensity (“MedFI”) readings (which are generally equivalent to the MFI readings, described in Example 3a above, for comparative purposes) were quantified for each sample analyzed by flow cytometry. Background MedFI was subtracted from all data points. Percent inhibition was reported by calculating the percent value of binding of […] to platelets in the presence of aptamer at a given concentration relative to binding in the absence of any aptamer (see FIG. 7). IC50 values were determined by fitting the percent inhibition of vWF binding to platelets as a function of aptamer concentration to the equation: % inhibition=% inhibitionmax/(1+IC50/aptamer conc.)
# [6] = test system: full length human vWF (SEQ ID NO 7); experiment: dot blot KD determination and extent of binding, full length human vWF; settings: for Kd: rRdY minimers, 8 point titration 0-300 nM, read-out: Full length human vWF KD; for Full length human vWF KD: DNA 2 minimers, 9 point protein titration;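 on all read-outs here: dot blot binding of aptamers to full length human vWF across a protein titration, incubated 30 minutes at room temperature in 1x DPBS with BSA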
# [7] = target: T1, human vWF A1 domain (SEQ ID NO 5); experiment: 3-point dot blot screen, human vWF A1 domain; type: binding; settings: rRfY aptamers; 100 nM human vWF A1 domain; ratio of fraction bound with target to fraction bound without target
# Method in brief: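 Values are ratios of aptamer fraction retained on nitrocellulose with 100 nM vWF A1 domain (human or rabbit) versus a no-protein control. Unique clones from rounds 9 and 12 pools were transcribed, desalted and 5'-32P labeled before this three-point dot blot screen.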
# [8] = test system: rabbit vWF A1 domain (SEQ ID NO 6); experiment: 3-point dot blot screen, rabbit vWF A1 domain; type: binding; settings: for Screen Rabbit/No Protein: 3-point dot blot screen, 20 nM rabbit vWF A1 domain, ratio of fraction of aptamer bound with target protein to fraction bound without protein
# Method in brief: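 Rabbit vWF A1 domain binding was screened by dot blot using three conditions: no target protein, human vWF, and rabbit vWF A1 domain at 100 nM (20 nM in the screen run twice). Radiolabeled aptamer bound to nitrocellulose was quantified, and results are expressed as the ratio of bound fraction with protein to bound fraction without protein.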
# [9] = test system: full length human vWF; experiment: 3-point dot blot screen, full length human vWF; type: binding; settings: 20 nM full length human vWF, ratio of fraction of aptamer bound with target protein to fraction bound without protein
# Method in brief: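 Unique aptamer clones tested twice by nitrocellulose dot blot with no protein, 20 nM full-length human vWF or 20 nM rabbit vWF A1 domain. Value is fraction of aptamer bound with target divided by fraction bound without protein.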
# [10] = read-out: Inhibition of rabbit VWF A1 domain binding in FACS assay, Average IC50
# [11] = DNA 2 minimers, 9 point protein titration
# [12] = read-out: human A1 KD, rRfY aptamers, 8 point titration of human vWF A1 domain
# [13] = both bounds in nM, read-out: Inhibition of rabbit VWF A1 domain binding in FACS assay, IC50 range
# Chain of rabbit vWF domain A1 binding to lyophilized platelets (as listed by the source): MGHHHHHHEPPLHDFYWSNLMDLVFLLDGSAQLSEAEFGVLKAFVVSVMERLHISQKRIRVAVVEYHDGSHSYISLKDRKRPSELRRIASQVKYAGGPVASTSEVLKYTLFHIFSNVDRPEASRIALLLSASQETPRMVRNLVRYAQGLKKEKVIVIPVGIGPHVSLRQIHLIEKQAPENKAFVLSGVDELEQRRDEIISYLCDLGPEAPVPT
# Chain of rabbit vWF A1 domain (SEQ ID NO 6) (as listed by the source): as above
# T1 sequence (P04275 with tags, fused parts or gaps T1381A): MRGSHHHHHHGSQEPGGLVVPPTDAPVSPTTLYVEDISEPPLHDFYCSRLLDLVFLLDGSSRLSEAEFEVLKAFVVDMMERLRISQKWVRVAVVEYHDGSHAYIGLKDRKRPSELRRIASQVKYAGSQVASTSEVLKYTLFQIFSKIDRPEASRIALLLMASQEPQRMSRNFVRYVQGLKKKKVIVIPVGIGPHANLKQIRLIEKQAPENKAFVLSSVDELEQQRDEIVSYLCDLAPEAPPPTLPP
molecule,measurement,setting,value
"CCAGCGGAATGAGAATGCTGATGGATTGCTCAGGTCTGCTGG (DNA, backbone not given here) [SEQ ID NO 204, minimized DNA aptamer]",Human vWF A1 domain KD,"[1]; DNA 1 minimers, competition dot blot, 10 nM protein",No binding
same,Rabbit vWF A1 domain KD,[2]; DNA 1 minimers,No binding
"GGACCACCCUCGCAACGAGAGUUGUGCCGCUGGUCC (rGrGrAfCfCrAfCfCfCfUfCrGfCrArAfCrGrArGrArGfUfUrGfUrGfCfCrGfCfUrGrGfUfCfC) [SEQ ID NO 174, minimized rRfY aptamer]",≦200 nM aptamer gives >90% blocking in BIPA at 6 minutes,[3],yes
same,IC50,[4],6.6 nM
same,IC50,[5]; [10],6.8 nM
"GGAGCCACACGACATTGGCGCGAGAGCGCATGGCTCC (chemistry not given here) [SEQ ID NO 201, minimized rRdY aptamer]",≦200 nM aptamer gives >90% blocking in BIPA at 6 minutes,[3],no activity
same,IC50,[4],150 nM
"GGCCACACGACATTGGCGGGCGAGAGCCACGCATGGCC (rGrGdCdCrAdCrAdCrGrAdCrAdTdTrGrGdCrGrGrGdCrGrArGrArGdCdCrAdCrGdCrAdTrGrGdCdC) [SEQ ID NO 198, minimized rRdY aptamer]",IC50,[4],20.6 nM
same,Kd,"[1]; read-out: Human vWF A1 domain KD, rRdY minimers, 8 point titration 0-300 nM",5 ± 2 nM
same,Kd,[6],3 ± 0.6 nM
same,IC50,[5]; [10],12.6 nM
same,Kd,[2],11 ± 2 nM
"GGCGTGCAGTGCCT-[PEG]-AGGCCGTGCGG-[PEG]-CCGTCACGCC-3T (DNA GGCGTGCAGTGCCTAGGCCGTGCGGCCGTCACGCCT; chemistry not fully specified) [ARC1031, minimized DNA aptamer]","Inhibition of full length hVWF binding in FACS assay, IC50 range",[4],no activity
same,Full length human vWF KD,[6],No binding
same,Rabbit vWF A1 domain KD,[2]; [11],No binding
"GGCGTGCAGTGCCTATTCTAGGCCGTGCGG-[PEG]-CCGTCACGCC-3T (DNA GGCGTGCAGTGCCTATTCTAGGCCGTGCGGCCGTCACGCCT; chemistry not fully specified) [ARC1030, minimized DNA aptamer]","Inhibition of full length hVWF binding in FACS assay, IC50 range",[4],no activity
same,Full length human vWF KD,[6],No binding
same,Rabbit vWF A1 domain KD,[2]; [11],No binding
"GGGACGGGGTGGGTAGACGGCGGGTATGTCCC (rGrGrGrAdCrGrGrGrGdTrGrGrGdTrArGrAdCrGrGdCrGrGrGdTrAdTrGdTdCdCdC) [SEQ ID NO 183, minimized rRdY aptamer]",IC50,[4],26.5 nM
same,Kd,[6],10 ± 5 nM
same,Kd,[2],14 ± 7 nM
B1,Screen- Human/No Protein,[7],1.88
same,≦200 nM aptamer gives >90% blocking in BIPA at 6 minutes,[3],yes
same,"Inhibition of full length hVWF binding in FACS assay, IC50 range",[4],no activity
same,Kd,[1]; [12],90 nM
same,Screen- Rabbit/No Protein,"[8]; rRfY aptamers, 100 nM rabbit vWF A1 domain, ratio of fraction bound with target to without",1.89
B2,Screen- Human/No Protein,[9],2.68
same,IC50,[4],6.5 nM
same,Screen Rabbit/No Protein,[8],2.54
same,IC50,[5]; [13],12.3 nM
B3,Screen- Human/No Protein,[9],2.64
same,IC50,[4],10.7 nM
same,Screen Rabbit/No Protein,[8],2.41
same,IC50,[5]; [13],14.5 nM
B4,≦200 nM aptamer gives >90% blocking in BIPA at 6 minutes,[3],yes
same,"Inhibition of full length hVWF binding in FACS assay, IC50 range",[4],no activity
same,Kd,[1]; [12],19 nM
